According to ChEMBL document CHEMBL5149982, “Development of Potent NEDD8-Activating Enzyme Inhibitors Bearing a Pyrimidotriazole Scaffold” (J Med Chem, 2021):

Columns and labels:
[1] = molecular target: T1, NEDD8 activating enzyme (Homo sapiens, UniProt Q8TBC4); assay: Inhibition of NAE (unknown origin) mediated neddylation assessed as decrease in NEDD8-Ubcl2 adduct formation incubated for 2 hrs in presence of L-glutathione and ATP by HTRF assay; assay type: protein-complex assay
T1 sequence (Q8TBC4 whole entry): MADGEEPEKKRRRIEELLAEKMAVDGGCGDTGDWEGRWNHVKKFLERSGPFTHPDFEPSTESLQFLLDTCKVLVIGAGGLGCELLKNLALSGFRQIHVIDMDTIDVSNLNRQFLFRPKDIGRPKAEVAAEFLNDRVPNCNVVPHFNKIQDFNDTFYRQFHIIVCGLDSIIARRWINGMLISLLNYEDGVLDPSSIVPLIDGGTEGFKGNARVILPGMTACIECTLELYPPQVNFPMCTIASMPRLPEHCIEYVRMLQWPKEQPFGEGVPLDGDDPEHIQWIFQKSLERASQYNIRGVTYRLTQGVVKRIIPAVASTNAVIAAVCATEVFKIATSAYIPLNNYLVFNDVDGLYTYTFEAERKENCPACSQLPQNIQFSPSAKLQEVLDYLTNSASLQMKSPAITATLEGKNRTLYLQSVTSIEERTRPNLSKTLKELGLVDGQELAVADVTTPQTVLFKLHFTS
T1 sequence (Q13564 whole entry): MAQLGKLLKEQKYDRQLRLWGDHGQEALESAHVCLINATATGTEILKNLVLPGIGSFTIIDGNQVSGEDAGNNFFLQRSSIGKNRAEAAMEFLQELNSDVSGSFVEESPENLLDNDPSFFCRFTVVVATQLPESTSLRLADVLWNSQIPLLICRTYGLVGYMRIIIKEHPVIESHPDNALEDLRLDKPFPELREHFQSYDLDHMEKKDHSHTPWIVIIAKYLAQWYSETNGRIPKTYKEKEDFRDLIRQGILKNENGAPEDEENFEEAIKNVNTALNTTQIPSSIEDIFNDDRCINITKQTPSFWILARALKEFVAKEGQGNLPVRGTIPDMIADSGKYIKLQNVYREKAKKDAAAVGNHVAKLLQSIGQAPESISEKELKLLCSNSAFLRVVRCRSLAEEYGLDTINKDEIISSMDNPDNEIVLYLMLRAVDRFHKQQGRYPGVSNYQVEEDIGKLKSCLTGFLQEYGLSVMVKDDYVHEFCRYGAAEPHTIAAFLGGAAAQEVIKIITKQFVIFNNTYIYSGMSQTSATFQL

[2] = system: HCT-116; assay: Antiproliferative activity against human HCT-116 cells assessed as cell growth inhibition by sulforhodamine B assay; assay type: functional, cell-based
[3] = molecular target: Voltage-gated inwardly rectifying potassium channel KCNH2 (Homo sapiens, UniProt Q12809); assay: Inhibition of hERG channel; assay type: toxicity
[4] = molecular target: T1, NEDD8 activating enzyme; assay: Inhibition of NAE (unknown origin); assay type: protein-complex assay
[5] = molecular target: T1, NEDD8 activating enzyme; assay: Inhibition of NAE in human HCT-116 cells incubated for 1 hr by Western blot analysis; assay type: cell-based

Sequence of Voltage-gated inwardly rectifying potassium channel KCNH2 (Q12809 whole entry): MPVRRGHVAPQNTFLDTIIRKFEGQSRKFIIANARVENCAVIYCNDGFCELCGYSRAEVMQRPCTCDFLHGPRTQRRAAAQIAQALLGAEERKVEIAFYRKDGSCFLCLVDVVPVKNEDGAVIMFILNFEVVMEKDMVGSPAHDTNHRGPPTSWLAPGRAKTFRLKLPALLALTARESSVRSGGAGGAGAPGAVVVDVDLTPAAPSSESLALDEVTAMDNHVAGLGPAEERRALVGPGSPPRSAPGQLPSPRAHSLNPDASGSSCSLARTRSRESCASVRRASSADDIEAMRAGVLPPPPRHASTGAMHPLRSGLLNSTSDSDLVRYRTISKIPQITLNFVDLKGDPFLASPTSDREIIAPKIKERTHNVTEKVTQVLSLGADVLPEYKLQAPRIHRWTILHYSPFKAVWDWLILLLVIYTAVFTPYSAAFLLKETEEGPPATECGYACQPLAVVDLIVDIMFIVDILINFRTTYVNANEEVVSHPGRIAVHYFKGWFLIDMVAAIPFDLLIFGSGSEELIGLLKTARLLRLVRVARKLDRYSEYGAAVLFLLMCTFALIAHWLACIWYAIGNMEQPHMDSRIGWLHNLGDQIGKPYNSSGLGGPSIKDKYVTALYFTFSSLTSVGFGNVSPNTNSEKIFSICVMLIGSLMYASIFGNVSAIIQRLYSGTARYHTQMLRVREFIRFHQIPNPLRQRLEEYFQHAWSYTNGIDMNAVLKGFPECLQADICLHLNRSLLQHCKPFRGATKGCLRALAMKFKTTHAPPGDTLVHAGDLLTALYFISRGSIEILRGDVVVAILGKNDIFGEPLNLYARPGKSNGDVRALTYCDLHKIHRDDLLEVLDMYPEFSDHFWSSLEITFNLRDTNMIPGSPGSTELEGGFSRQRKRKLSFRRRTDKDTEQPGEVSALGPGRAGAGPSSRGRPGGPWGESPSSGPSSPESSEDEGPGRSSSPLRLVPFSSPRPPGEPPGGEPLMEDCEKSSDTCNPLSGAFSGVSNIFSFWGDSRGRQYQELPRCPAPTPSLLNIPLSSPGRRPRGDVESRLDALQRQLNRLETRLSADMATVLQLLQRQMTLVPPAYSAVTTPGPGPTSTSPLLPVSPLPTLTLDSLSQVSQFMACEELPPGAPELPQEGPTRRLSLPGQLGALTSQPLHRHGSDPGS

Compound | IC50 [1] [nM] | IC50 [2] [nM] | also measured
NS(=O)(=O)OC[C@@H]1C[C@@H](Nc2ncnc(N[C@H]3CCc4ccccc43)c2F)C[C@@H]1O | 219 |  | 
CC(C)(C)OC(=O)N1CCC2(CC1)C[C@H](Nc1ncnc3c1nnn3[C@@H]1C[C@@H](COS(N)(=O)=O)[C@@H](O)C1)c1ccccc12 | 9.76 | 94.4 | IC50 [3]: > 40000 nM
CC(C)OC(=O)N1CCC2(CC1)C[C@H](Nc1ncnc3c1nnn3[C@@H]1C[C@@H](COS(N)(=O)=O)[C@@H](O)C1)c1ccccc12 | 4.2 | 121 | 
NS(=O)(=O)OC[C@@H]1C[C@@H](n2nnc3c(NCCc4cccs4)ncnc32)C[C@@H]1O | 107 |  | 
COCCO[C@H]1Cc2ccccc2[C@H]1Nc1ncnc2c1nnn2[C@@H]1C[C@@H](COS(N)(=O)=O)[C@@H](O)C1 | 3.56 | 70.2 | 
NS(=O)(=O)OC[C@@H]1C[C@@H](n2nnc3c(NCCc4ccccc4)ncnc32)C[C@@H]1O | 81.8 |  | 
CC(C)(C)NC(=O)N1CCC2(CC1)C[C@H](Nc1ncnc3c1nnn3[C@@H]1C[C@@H](COS(N)(=O)=O)[C@@H](O)C1)c1ccccc12 | 0.02 | 151 | 
NS(=O)(=O)OC[C@@H]1C[C@@H](n2nnc3c(NCCCc4ccccc4)ncnc32)C[C@@H]1O | 149 |  | 
NS(=O)(=O)OC[C@@H]1C[C@@H](n2nnc3c(NC4CCCC4)ncnc32)C[C@@H]1O | > 10000 |  | 
NS(=O)(=O)OC[C@@H]1C[C@@H](n2nnc3c(Nn4ccc5ccccc54)ncnc32)C[C@@H]1O | > 10000 |  | 
NS(=O)(=O)OC[C@@H]1C[C@@H](n2nnc3c(N[C@H]4CCc5ccccc54)ncnc32)C[C@@H]1O | 0.21 | 43.2 | IC50 [3]: > 40000 nM
NS(=O)(=O)OC[C@H]1O[C@@H](n2cnc3c(N[C@H]4CCc5ccccc54)ncnc32)[C@H](O)[C@@H]1O |  |  | IC50 [4]: 10 nM
NS(=O)(=O)OC[C@@H]1C[C@@H](n2nnc3c(NCc4ccccc4F)ncnc32)C[C@@H]1O | 6.11 | 3860 | 
CCOc1cccc(F)c1C#Cc1cn([C@@H]2O[C@H](COS(N)(=O)=O)[C@@H](O)[C@H]2O)c2ncnc(N)c12 |  |  | IC50 [4]: 1 nM; IC50 [5]: 8 nM
NS(=O)(=O)OC[C@@H]1C[C@@H](n2nnc3c(NCc4ccco4)ncnc32)C[C@@H]1O | 30.6 |  | 
CN(C)[C@H]1Cc2ccccc2[C@H]1Nc1ncnc2c1nnn2[C@@H]1C[C@@H](COS(N)(=O)=O)[C@@H](O)C1 | 207 |  | 
CN1CCC2(CC1)C[C@H](Nc1ncnc3c1nnn3[C@@H]1C[C@@H](COS(N)(=O)=O)[C@@H](O)C1)c1ccccc12 | 187 |  | 

Compound | IC50 [1] [nM] | IC50 [2] [nM] | also measured
NS(=O)(=O)OC[C@@H]1C[C@@H](n2nnc3c(N[C@H]4CC5(CCN(C(=O)OCCF)CC5)c5ccccc54)ncnc32)C[C@@H]1O | 6 | 104 | 
COC(=O)[C@H]1C=C[C@@H](Nc2ncnc3c2nnn3[C@@H]2C[C@@H](COS(N)(=O)=O)[C@@H](O)C2)C1 | 80.9 |  | 
CCOC(=O)N1CCC2(CC1)C[C@H](Nc1ncnc3c1nnn3[C@@H]1C[C@@H](COS(N)(=O)=O)[C@@H](O)C1)c1ccccc12 | 2.23 | 102 | 
NS(=O)(=O)OC[C@@H]1C[C@@H](n2nnc3c(N[C@H]4CC5(CCN(C(=O)OC(CO)CO)CC5)c5ccccc54)ncnc32)C[C@@H]1O | 120 |  | 
NS(=O)(=O)OC[C@@H]1C[C@@H](n2nnc3c(N[C@H]4CC5(CCNCC5)c5ccccc54)ncnc32)C[C@@H]1O | 66.9 |  | 
NS(=O)(=O)OC[C@@H]1C[C@@H](n2nnc3c(Nc4cnc5ccccn45)ncnc32)C[C@@H]1O | > 10000 |  | 
NS(=O)(=O)OC[C@@H]1C[C@@H](n2nnc3c(N[C@H]4CC5(CCN(C(=O)OCCN6CCOCC6)CC5)c5ccccc54)ncnc32)C[C@@H]1O | 9.98 | 338 | 
NS(=O)(=O)OC[C@@H]1C[C@@H](n2nnc3c(N[C@H]4CC5(CCN(C(=O)OC(C(F)(F)F)C(F)(F)F)CC5)c5ccccc54)ncnc32)C[C@@H]1O | 21.1 |  | 
NS(=O)(=O)OC[C@@H]1C[C@@H](n2ncc3c(N[C@H]4CCc5ccccc54)ccnc32)C[C@@H]1O | > 10000 |  | 
COCC(=O)N[C@@H]1Cc2ccccc2[C@H]1Nc1ncnc2c1nnn2[C@@H]1C[C@@H](COS(N)(=O)=O)[C@@H](O)C1 | > 10000 |  | 
NS(=O)(=O)OC[C@@H]1C[C@@H](n2nnc3c(NCc4cccs4)ncnc32)C[C@@H]1O | 15.9 | > 10000 | 
NS(=O)(=O)OC[C@@H]1C[C@@H](n2nnc3c(N[C@H]4CC5(CCN(C(=O)O[C@@H]6CCOC6)CC5)c5ccccc54)ncnc32)C[C@@H]1O | 0.57 | 110 | 
CCCCCCNc1ncnc2c1nnn2[C@@H]1C[C@@H](COS(N)(=O)=O)[C@@H](O)C1 | 21.1 |  | 
COCC(=O)N1CCC2(CC1)C[C@H](Nc1ncnc3c1nnn3[C@@H]1C[C@@H](COS(N)(=O)=O)[C@@H](O)C1)c1ccccc12 | 5.77 | 1420 | 
NS(=O)(=O)OC[C@@H]1C[C@@H](n2nnc3c(Nc4n[nH]c5ccccc45)ncnc32)C[C@@H]1O | > 10000 |  | 
COCC(=O)N[C@H]1Cc2ccccc2[C@H]1Nc1ncnc2c1nnn2[C@@H]1C[C@@H](COS(N)(=O)=O)[C@@H](O)C1 | 170 |  | 
NS(=O)(=O)OC[C@@H]1C[C@@H](n2nnc3c(N[C@@H]4c5ccccc5C[C@@H]4O)ncnc32)C[C@@H]1O | 2.28 | 38.8 | IC50 [3]: > 40000 nM
